Assays:
PIK3CA = biological target: T1, PIK3CA (Homo sapiens, UniProt P42336); experiment: In vitro ELISA target engagement assay for PIK3CA in Jurkat cellular lysate (competition with PIK3CA Biotin Probe); type: binding; conditions: 1 hour at rt, then 500 nM PIK3CA Biotin Probe, read-out: Elisa Target Engagement Assay (TE50)
T1 construct: endogenous in cells; host or cells: Jurkat cell lysate
Procedure, shortened: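 Jurkat lysate from sonicated frozen cells was preincubated 1 h at rt with serially diluted compound up to 200 μM, then labelled 1 h at rt with PIK3CA biotin probe at 500 nM final. Probe-bound PIK3CA was captured on antibody-coated plates and detected with Neutravidin-HRP luminescence; TE50 derived from the dose response.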

PIK3CA_C242 = biological target: T2, PIK3CA_C242 (Homo sapiens, UniProt P42336); experiment: Proteomic TE50 (IA-DTB / TMT mass spectrometry) in Jurkat cell lysate; type: binding; conditions: 1 hour at rt, 7-point dose response
T2 construct: endogenous in cells; host or cells: Jurkat cell lysate
T2 sequence (P42336 whole entry): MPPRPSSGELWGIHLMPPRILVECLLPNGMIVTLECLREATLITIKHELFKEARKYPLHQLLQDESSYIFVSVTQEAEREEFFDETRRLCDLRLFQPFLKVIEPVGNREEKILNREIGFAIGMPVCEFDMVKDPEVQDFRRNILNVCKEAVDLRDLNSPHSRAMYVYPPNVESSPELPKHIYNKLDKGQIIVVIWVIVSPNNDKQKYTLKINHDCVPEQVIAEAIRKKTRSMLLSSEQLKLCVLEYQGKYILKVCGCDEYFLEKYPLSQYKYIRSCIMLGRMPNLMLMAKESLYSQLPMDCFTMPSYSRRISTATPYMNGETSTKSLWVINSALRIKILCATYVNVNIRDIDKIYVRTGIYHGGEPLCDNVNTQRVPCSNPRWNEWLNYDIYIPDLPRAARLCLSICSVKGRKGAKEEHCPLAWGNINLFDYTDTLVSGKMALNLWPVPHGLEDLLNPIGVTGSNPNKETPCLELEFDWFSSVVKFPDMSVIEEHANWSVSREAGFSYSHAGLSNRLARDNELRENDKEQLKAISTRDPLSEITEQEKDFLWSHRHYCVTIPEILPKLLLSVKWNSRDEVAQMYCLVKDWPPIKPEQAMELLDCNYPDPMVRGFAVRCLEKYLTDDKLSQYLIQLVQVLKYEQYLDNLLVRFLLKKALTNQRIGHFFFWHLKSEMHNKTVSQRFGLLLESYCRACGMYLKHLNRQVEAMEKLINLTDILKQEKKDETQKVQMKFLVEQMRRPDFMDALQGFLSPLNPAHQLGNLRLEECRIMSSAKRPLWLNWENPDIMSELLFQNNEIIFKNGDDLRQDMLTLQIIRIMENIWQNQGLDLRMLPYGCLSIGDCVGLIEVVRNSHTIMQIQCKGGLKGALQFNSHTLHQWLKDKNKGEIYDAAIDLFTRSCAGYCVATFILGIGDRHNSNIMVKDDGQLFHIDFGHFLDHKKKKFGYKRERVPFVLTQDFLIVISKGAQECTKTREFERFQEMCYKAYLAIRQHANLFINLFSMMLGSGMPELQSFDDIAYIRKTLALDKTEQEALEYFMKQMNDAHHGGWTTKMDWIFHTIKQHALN
T2 sequence (P27986 whole entry partner): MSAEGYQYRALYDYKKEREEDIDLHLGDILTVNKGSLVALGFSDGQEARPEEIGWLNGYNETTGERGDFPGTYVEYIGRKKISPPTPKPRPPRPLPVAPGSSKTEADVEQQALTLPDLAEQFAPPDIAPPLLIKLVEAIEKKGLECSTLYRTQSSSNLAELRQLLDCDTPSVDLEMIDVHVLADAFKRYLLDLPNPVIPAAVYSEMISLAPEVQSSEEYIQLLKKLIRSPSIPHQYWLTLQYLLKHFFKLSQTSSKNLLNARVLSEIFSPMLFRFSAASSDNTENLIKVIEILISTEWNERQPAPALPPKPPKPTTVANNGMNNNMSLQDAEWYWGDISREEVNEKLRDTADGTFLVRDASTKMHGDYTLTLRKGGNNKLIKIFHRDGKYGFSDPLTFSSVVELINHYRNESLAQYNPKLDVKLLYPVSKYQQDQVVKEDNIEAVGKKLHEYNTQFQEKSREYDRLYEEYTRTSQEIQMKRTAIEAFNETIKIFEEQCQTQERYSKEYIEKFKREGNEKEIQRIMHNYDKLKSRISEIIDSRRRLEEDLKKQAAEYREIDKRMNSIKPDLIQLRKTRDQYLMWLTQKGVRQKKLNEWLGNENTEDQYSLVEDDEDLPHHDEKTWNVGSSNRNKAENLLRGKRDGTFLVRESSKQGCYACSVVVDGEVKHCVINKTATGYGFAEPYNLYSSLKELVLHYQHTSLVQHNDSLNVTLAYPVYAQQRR
Procedure, shortened: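 Jurkat lysate (500 μg) treated with compound (7-point, 1:5 dilutions) for 1 h at rt, then labelled with 200 μM IA-DTB for 1 h. After digestion and streptavidin enrichment, the C242 peptide was quantified by targeted MS3 TMT. TE50 was derived from reporter-ion S/N dose-response curves.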

T1 sequence (P42336 whole entry): as the sequence (P42336 whole entry) above
T1 sequence (P27986 whole entry partner): as the sequence (P27986 whole entry partner) above

| Compound | IC50 (PIK3CA) | IC50 (PIK3CA_C242) |
| --- | --- | --- |
| C=C(C)c1ccc(S(=O)(=O)N2CCC(F)(C(=O)N[C@H](C)/C=C\S(C)(=O)=O)CC2)c(-c2ccccc2C)c1 [Compound 110, (R,Z)-4-fluoro-1-((2′-methyl-5-(prop-1-en-2-yl)-[1,1′-biphenyl]-2-yl)sulfonyl)-N-(4-(methylsulfonyl)but-3-en-2-yl)piperidine-4-carboxamide] | 830 nM | 363 nM |
| CC#Cc1cccc(-c2cc(Cl)ccc2S(=O)(=O)N2CCC(F)(C(=O)N[C@@H](C)/C=C\S(C)(=O)=O)CC2)c1 [Compound 100, (S,Z)-1-((5-chloro-3′-(prop-1-yn-1-yl)-[1,1′-biphenyl]-2-yl)sulfonyl)-4-fluoro-N-(4-(methylsulfonyl)but-3-en-2-yl)piperidine-4-carboxamide] | 99 nM | 96 nM |
| C[C@H](/C=C\S(C)(=O)=O)NC(=O)C1(F)CCN(S(=O)(=O)c2cnc(Cl)cc2-c2ccccc2Cl)CC1 [Compound 231, (R,Z)-1-((6-chloro-4-(2-chlorophenyl)pyridin-3-yl)sulfonyl)-4-fluoro-N-(4-(methylsulfonyl)but-3-en-2-yl)piperidine-4-carboxamide] | 130 nM | 114 nM |
| N#C/C=C\CNC(=O)C1(F)CCN(S(=O)(=O)c2ccc(Br)cc2-c2ccccc2Cl)CC1 [Compound 70, (Z)-1-((5-bromo-2′-chloro-[1,1′-biphenyl]-2-yl)sulfonyl)-N-(3-cyanoallyl)-4-fluoropiperidine-4-carboxamide] | 95 nM | 70 nM |
| COc1cc(-c2ccccc2Cl)c(S(=O)(=O)N2CCC(F)(C(=O)N[C@H](C)/C=C\S(C)(=O)=O)CC2)cn1 [Compound 186, 1-[[4-(2-chlorophenyl)-6-methoxy-3-pyridyl]sulfonyl]-4-fluoro-N—[(Z,1R)-1-methyl-3-methylsulfonyl-allyl]piperidine-4-carboxamide] | 493 nM | 226 nM |
| COc1cc(-c2ccccc2Cl)c(S(=O)(=O)N2CCC(F)(C(=O)N[C@H](C)/C=C\S(C)(=O)=O)CC2)cc1Cl [Compound 29, (R,Z)-1-((2′,4-dichloro-5-methoxy-[1,1′-biphenyl]-2-yl)sulfonyl)-4-fluoro-N-(4-(methylsulfonyl)but-3-en-2-yl)piperidine-4-carboxamide] | 570 nM | 390 nM |
| C[C@H](/C=C\S(C)(=O)=O)NC(=O)C1(F)CCN(S(=O)(=O)c2ccc(F)cc2-c2ccccc2Cl)CC1 [Compound 31, (R,Z)-1-((2′-chloro-5-fluoro-[1,1′-biphenyl]-2-yl)sulfonyl)-4-fluoro-N-(4-(methylsulfonyl)but-3-en-2-yl)piperidine-4-carboxamide] | 760 nM | 620 nM |
| COc1ccc(S(=O)(=O)N2CCC(F)(C(=O)N[C@@H](C)/C=C\S(C)(=O)=O)CC2)c(-c2ccccc2)c1 [Compound 4, (S,Z)-4-fluoro-1-((5-methoxy-[1,1′-biphenyl]-2-yl)sulfonyl)-N-(4-(methylsulfonyl)but-3-en-2-yl)piperidine-4-carboxamide] | 140 nM | 206 nM |
| COCc1cccc(-c2cc(Cl)ccc2S(=O)(=O)N2CCC(F)(C(=O)N[C@@H](C)/C=C\S(C)(=O)=O)CC2)c1 [Compound 126, (S,Z)-1-((5-chloro-3′-(methoxymethyl)-[1,1′-biphenyl]-2-yl)sulfonyl)-4-fluoro-N-(4-(methylsulfonyl)but-3-en-2-yl)piperidine-4-carboxamide] | 430 nM | 816 nM |
| COc1cccc(COc2cccc(-c3cc(Cl)ccc3S(=O)(=O)N3CCC(F)(C(=O)N[C@@H](C)/C=C\S(C)(=O)=O)CC3)c2)c1 [Compound 261, (S,Z)-1-((5-chloro-3′-((3-methoxybenzyl)oxy)-[1,1′-biphenyl]-2-yl)sulfonyl)-4-fluoro-N-(4-(methylsulfonyl)but-3-en-2-yl)piperidine-4-carboxamide] | 480 nM | 730 nM |
| CC[C@@H](/C=C\S(C)(=O)=O)NC(=O)C1(F)CCN(S(=O)(=O)c2ccc(Cl)cc2-c2cccc(OC)c2)CC1 [Compound 83, (S,Z)-1-((5-chloro-3′-methoxy-[1,1′-biphenyl]-2-yl)sulfonyl)-4-fluoro-N-(1-(methylsulfonyl)pent-1-en-3-yl)piperidine-4-carboxamide] | 520 nM | 540 nM |
| C[C@@H](/C=C\S(C)(=O)=O)NC(=O)C1(F)CCN(S(=O)(=O)c2ccc(Cl)cc2-c2cccc(OC3CC3)c2)CC1 [Compound 15, (S,Z)-1-((5-chloro-3′-cyclopropoxy-[1,1′-biphenyl]-2-yl)sulfonyl)-4-fluoro-N-(4-(methylsulfonyl)but-3-en-2-yl)piperidine-4-carboxamide] | 410 nM | 400 nM |
| Cc1ccccc1-c1cc(N2CCOCC2)ccc1S(=O)(=O)N1CCC(F)(C(=O)N[C@H](C)/C=C\S(C)(=O)=O)CC1 [Compound 122, (R,Z)-4-fluoro-1-((2′-methyl-5-morpholino-[1,1′-biphenyl]-2-yl)sulfonyl)-N-(4-(methylsulfonyl)but-3-en-2-yl)piperidine-4-carboxamide] | 610 nM | 490 nM |
| COc1cc(-c2ccccc2)c(S(=O)(=O)N2CCC(F)(C(=O)N[C@@H](C)/C=C\S(C)(=O)=O)CC2)cn1 [Compound 192, (S,Z)-4-fluoro-1-((6-methoxy-4-phenylpyridin-3-yl)sulfonyl)-N-(4-(methylsulfonyl)but-3-en-2-yl)piperidine-4-carboxamide] | 280 nM | 240 nM |
| CC#CCOc1cccc(-c2cc(Cl)ccc2S(=O)(=O)N2CCC(F)(C(=O)N[C@@H](C)/C=C\S(C)(=O)=O)CC2)c1 [Compound 264, (S,Z)-1-((3′-(but-2-yn-1-yloxy)-5-chloro-[1,1′-biphenyl]-2-yl)sulfonyl)-4-fluoro-N-(4-(methylsulfonyl)but-3-en-2-yl)piperidine-4-carboxamide] | 480 nM | 510 nM |
| COc1cccc(-c2cc(Cl)ccc2S(=O)(=O)N2CCC(F)(C(=O)N[C@@H](C)/C=C\S(C)(=O)=O)CC2)c1 [Compound 1, (S,Z)-1-((5-chloro-3′-methoxy-[1,1′-biphenyl]-2-yl)sulfonyl)-4-fluoro-N-(4-(methylsulfonyl)but-3-en-2-yl)piperidine-4-carboxamide] | 110 nM | 246 nM |
| C[C@@H](/C=C\S(C)(=O)=O)NC(=O)C1(F)CCN(S(=O)(=O)c2ccc(Cl)cc2-c2cccc(OCc3cccc(Cl)c3)c2)CC1 [Compound 266, (S,Z)-1-((5-chloro-3′-((3-chlorobenzyl)oxy)-[1,1′-biphenyl]-2-yl)sulfonyl)-4-fluoro-N-(4-(methylsulfonyl)but-3-en-2-yl)piperidine-4-carboxamide] | 750 nM | 600 nM |
| C[C@@H](/C=C\S(C)(=O)=O)NC(=O)C1(F)CCN(S(=O)(=O)c2ccc(Cl)cc2-c2cccc(C#N)c2)CC1 [Compound 8, (S,Z)-1-((5-chloro-3′-cyano-[1,1′-biphenyl]-2-yl)sulfonyl)-4-fluoro-N-(4-(methylsulfonyl)but-3-en-2-yl)piperidine-4-carboxamide] | 690 nM | 1350 nM |
| COc1ccc(S(=O)(=O)N2CCC(F)(C(=O)N[C@H](C)/C=C\S(C)(=O)=O)CC2)c(-c2ccccc2C)c1 [Compound 24, (R,Z)-4-fluoro-1-((5-methoxy-2′-methyl-[1,1′-biphenyl]-2-yl)sulfonyl)-N-(4-(methylsulfonyl)but-3-en-2-yl)piperidine-4-carboxamide] | 170 nM | 232 nM |
| C[C@H](/C=C\S(C)(=O)=O)NC(=O)C1(F)CCN(S(=O)(=O)c2ccc(Cl)cc2-c2ccccc2)CC1 [Compound 20, (R,Z)-1-((5-chloro-[1,1′-biphenyl]-2-yl)sulfonyl)-4-fluoro-N-(4-(methylsulfonyl)but-3-en-2-yl)piperidine-4-carboxamide] | 680 nM | 462 nM |
| COc1ccc(Cl)c(-c2cc(Cl)ncc2S(=O)(=O)N2CCC(F)(C(=O)N[C@@H](C)/C=C\S(C)(=O)=O)CC2)c1 [Compound 271, (S,Z)-1-((6-chloro-4-(2-chloro-5-methoxyphenyl)pyridin-3-yl)sulfonyl)-4-fluoro-N-(4-(methylsulfonyl)but-3-en-2-yl)piperidine-4-carboxamide] | 170 nM | 209 nM |
| C[C@@H](/C=C\S(C)(=O)=O)NC(=O)C1(F)CCN(S(=O)(=O)c2ccc(Cl)cc2-c2cccc(Cl)c2)CC1 [Compound 3, (S,Z)-1-((3′,5-dichloro-[1,1′-biphenyl]-2-yl)sulfonyl)-4-fluoro-N-(4-(methylsulfonyl)but-3-en-2-yl)piperidine-4-carboxamide] | 90 nM | 110 nM |
| COc1ccc(S(=O)(=O)N2CCC(F)(C(=O)N[C@H](C)/C=C/C#N)CC2)c(-c2ccccc2Cl)c1 [Compound 229, (R,E)-1-((2′-chloro-5-methoxy-[1,1′-biphenyl]-2-yl)sulfonyl)-N-(4-cyanobut-3-en-2-yl)-4-fluoropiperidine-4-carboxamide] | 1100 nM | 970 nM |
| C[C@H](/C=C\S(C)(=O)=O)NC(=O)C1(F)CCN(S(=O)(=O)c2ccc(C3COC3)cc2-c2ccccc2Cl)CC1 [Compound 132, (R,Z)-1-((2′-chloro-5-(oxetan-3-yl)-[1,1′-biphenyl]-2-yl)sulfonyl)-4-fluoro-N-(4-(methylsulfonyl)but-3-en-2-yl)piperidine-4-carboxamide] | 524 nM | 468 nM |
| C[C@H](/C=C\S(C)(=O)=O)NC(=O)C1(F)CCN(S(=O)(=O)c2ccc(N(C)C)cc2-c2ccccc2Cl)CC1 [Compound 92, (R,Z)-1-((2′-chloro-5-(dimethylamino)-[1,1′-biphenyl]-2-yl)sulfonyl)-4-fluoro-N-(4-(methylsulfonyl)but-3-en-2-yl)piperidine-4-carboxamide] | 130 nM | 139 nM |
